{"source": "patent EP0334369B1", "about": "“Antiarteriosclerotic agent” (DAIICHI PHARMACEUTICAL CO., LTD., priority 1988, dated 1989)", "tested_on": "Vascular smooth muscle cells (VSMC)", "assay": "Determination of DT (time required for doubling the number of cells) of vascular smooth muscle culture cells", "format": "cell-based", "details": "Treated Group; VSMC from aorta of SHR, 48-hour cultivation with Compound A; concentration not given; P < 0.02 vs. control group by Student's t-test; hydrate", "protocol": "Effects on Proliferation of Vascular Smooth Muscle Culture Cells Vascular smooth muscle cells (hereinafter referred to as VSMC) were separated from the aorta of seven 7-week-old male SHR and cultured according to the explant method [cf. Ross, R.J. Cell Biol., Vol. 50, 172 (1971)]. Culture cells of passage Nos. 4 to 10 were used for testing. The proliferation ability of VSMC was evaluated in terms of time required for doubling the number of the cells (hereinafter referred to as DT) and ³H-TU according to the following test methods. 1) Determination of DT: VSMC (about 5 x 10⁴ cells) were cultured on a plate for 24 hours. Compound A was added to the culture, and cultivation was continued for an additional period of 48 hours. The number of cells before the addition of Compound A and after the 48-hour cultivation were counted by means of a light microscope, and DT was obtained therefrom by the equation: [formula] wherein t₁ is the time at which the number of cells before addition of Compound A is counted; t₂ is the time at which the number of cells after addition of Compound A is counted; N₁ is the number of cells at t₁; and N₂ is the number of cells at t₂.", "note": "Several values for one entry are separate records, joined by “and”; a condition that tells them apart may be missing. Equal entries are not always repeated. Structures can show the parent of a compound that is named as a salt."}
{"compound": "O=C(O)c1ccc2c(c1)CCC(Cn1ccnc1)C2", "note": "(stereo not shown) [Compound A, 6-(1-Imidazolylmethyl)-5,6,7,8-tetrahydro-2-naphthalenecarboxylic acid hydrochloride 1/2 hydrate]", "values": [{"measurement": "DT", "result": "26.16 h and 27.81 h and 26.59 h and 28.94 h and 21.66 h and 24.41 h"}]}
